# Measurements reported in patent US20100285053A1, “Immunosuppressive Extract Of Cordyceps Sinensis And Uses Thereof” (Dalhousie University, priority 2006, published 2010).
# Columns and labels:
# Adherent macrophages = assay: Effect of MAPK inhibitors on IL-6 production by stimulated macrophages; assay type: cell-based, murine; conditions: 25 μM inhibitor 30 min pre-incubation, then ACE 3.4 mg/mL 48 hours
# Method: Adherent macrophages were pre-incubated with media, vehicle (0.06% DMSO; Sigma), 25 μM ERK inhibitor, (PD98059; Calbiochem), or 25 μM p38 inhibitor (SB203580; Calbiochem) for 30 min at 37° C. before being treated with test agent. The cells were further incubated for 48 hours with ACE (3.4 mg/mL) or Zymosan (0.01%). DMSO was used as a vehicle control. IL-6 production was assayed using ELISA.
# [1] = tested on: Peritoneal elicited macrophages; assay: Endotoxin test: Polymyxin B pre-treatment, IL-6 production by macrophages; assay type: cell-based; conditions: Polymyxin B 20 μg/ml 30 min, then LPS 10 ηg/ml
# Method: To test for LPS contamination, macrophages were pre-treated with Polymyxin B, followed by incubation with ACE. Peritoneal elicited macrophages were pre-incubated with media or LPS inhibitor Polymyxin B (Calbiochem) at 20 μg/ml for 30 min at 37° C. Cells were further incubated with LPS (10 ηg/ml) or ACE (3.4 mg/ml). […] Results are shown as levels of IL-6 production, which were measured using ELISA. Means and standard deviations of triplicate samples are shown. Data are representative of three separate experiments.
Compound,IL-6 production by ACE treated macrophages in presence of inhibitor (Adherent macrophages),reduction of LPS activity (IL-6 production) [1] [%]
COc1cccc(-c2cc(=O)c3ccccc3o2)c1N [PD98059],marked decreases of IL-6 production,–
C[S+]([O-])c1ccc(-c2nc(-c3ccncc3)c(-c3ccc(F)cc3)[nH]2)cc1 (stereo not drawn) [SB203580],marked decreases of IL-6 production,–
Polymyxin B,–,~80
